Results on 4 molecules are retold here after ChEMBL document CHEMBL1152625, “Pochonicine, a polyhydroxylated pyrrolizidine alkaloid from fungus Pochonia suchlasporia var. suchlasporia TAMA 87 as a potent beta-N-acetylglucosaminidase inhibitor” (Bioorg Med Chem, 2009).

The source made the active and inactive calls. The calls are words filed in the database; no cut-off is given here.

The nature of test [1]: Inhibition of bovine kidney beta-N-acetylglucosaminidase by pNP-GlcNAc substrate hydrolysis assay. Also noted: species or system Bos taurus.
Test [2] can be described thus: Inhibition of jack bean beta-N-acetylglucosaminidase by pNP-GlcNAc substrate hydrolysis assay. Details: species or system Canavalia ensiformis.
The nature of test [3]: Inhibition of Spodoptera litura beta-N-acetylglucosaminidase by pNP-GlcNAc substrate hydrolysis assay.
Test [4] is described as follows: Inhibition of Aspergillus oryzae beta-N-acetylglucosaminidase by pNP-GlcNAc substrate hydrolysis assay.
Test [5] in a line: Inhibition of Penicillium oxalicum beta-N-acetylglucosaminidase by pNP-GlcNAc substrate hydrolysis assay.
Test [6] is described as follows: Competitive inhibition of Spodoptera litura beta-N-acetylglucosaminidase by pNP-GlcNAc substrate hydrolysis assay.
Test [7] in a line: Noncompetitive inhibition of Aspergillus oryzae beta-N-acetylglucosaminidase by pNP-GlcNAc substrate hydrolysis assay.
The nature of test [8]: Mixed type inhibition of Penicillium oxalicum beta-N-acetylglucosaminidase by pNP-GlcNAc substrate hydrolysis assay.
Test [9] in a line: Noncompetitive inhibition of bovine kidney beta-N-acetylglucosaminidase by pNP-GlcNAc substrate hydrolysis assay. Details: species or system Bos taurus.
Test [10] can be described thus: Competitive inhibition of jack bean beta-N-acetylglucosaminidase by pNP-GlcNAc substrate hydrolysis assay. Also noted: species or system Canavalia ensiformis.
Test [11] deals with Bacillus sp. Nature of the test: Inhibition of Bacillus sp. chitinase at 209 uM by pNP-GlcNAc2 substrate hydrolysis assay.
For test [12], the system named is Prunus dulcis. Nature of the test: Inhibition of almond beta-glucosidase at 2.38 uM by pNP-beta-Glc substrate hydrolysis assay.
In test [13] the test system is Saccharomyces cerevisiae. Nature of the test: Inhibition of yeast alpha-glucosidase at 2.38 uM by […] substrate hydrolysis assay.
Test [14] can be described thus: Competitive inhibition of Aspergillus oryzae beta-N-acetylglucosaminidase by pNP-GlcNAc substrate hydrolysis assay.
Test [15] can be described thus: Competitive inhibition of Penicillium oxalicum beta-N-acetylglucosaminidase by pNP-GlcNAc substrate hydrolysis assay.
Test [16] is described as follows: Competitive inhibition of bovine kidney beta-N-acetylglucosaminidase by pNP-GlcNAc substrate hydrolysis assay. Also noted: species or system Bos taurus.

Take `CC(=O)NC[C@@H]1N[C@H](CO)[C@@H](O)[C@@H]1O`: the inhibition constant (Ki) in test [1] turned out to be 68600 nM; in test [2] it was 3600 nM.

Regarding `CC(=O)NC[C@H]1N[C@H](CO)[C@@H](O)[C@@H]1O`, the figures for the Ki in test [1] and in test [2] were 9800 nM and 1900 nM, respectively.

Consider `CC(=O)NC[C@H]1[C@H](O)[C@H](O)[C@@H]2[C@H](O)C[C@@H](CO)N21` (relative stereo) [POCHONICINE], for which the IC50 in test [3] came to 5.96 nM; in test [4], 20.3 nM; in test [5], 42.1 nM; in test [1] it was 1.06 nM; in test [2], 0.288 nM. For the same molecule, the Ki in test [6] turned out to be 1.77 nM; in [7] it was 141 nM; in test [8], 13.2 nM; in test [9] it was 1.04 nM; in [10], 0.162 nM. The result in test [11], in test [12] and in test [13] was inactive.

For `CC(=O)N[C@H]1c2nc(CC(=O)O)cn2[C@H](CO)[C@H](O)[C@@H]1O` [NAGSTATIN], the IC50 in test [3] worked out at 5.85 nM; in test [4], 10.6 nM; in test [5] it was 60.6 nM; in [1], 1.71 nM. Also, the Ki in test [6] stood at 1.1 nM; in test [10], 1.41 nM; in [14] it was 9.69 nM; in test [15] it was 8.11 nM; in test [16], 1.64 nM.

Broadly, the Ki is a dissociation constant, usually derived from enzyme kinetics or from competition with a known ligand. The IC50 is the concentration that gives 50% inhibition. The low end stands for higher potency, the high end for lower potency.
